Assay [1] concerns the target NanoLuc® Luciferase (Oplophorus gracilirostris, UniProt Q9GV45, A31E/A60N/A81I/F95D/I117V/K70R/L54V/L99Q/M102K/N193R/P142E/Q151K/Q38R/Q45L/V71I/Y165I). The format is biochemical. As to conditions: ratio to coelenterazine (=1); for I (relative light units, ratio in comparison to native coelenterazine): initial light output three minutes after substrate addition; for Half-life (signal half-life, ratio in comparison to native coelenterazine): read at five minute intervals. On the procedure: (§1) Luminescence Assay Procedure: Each compound to be screened was dissolved in DMSO (5 mM) and then further diluted to 100 uM in NANO-GLOR Luciferase Assay Buffer. Each diluted substrate was then combined in equal volumes with purified NanoLuc® Luciferase diluted into CO2 independent media+10% FBS. Initial light output for each substrate was measured in a GloMax®-Multi+ luminometer three minutes after substrate addition and then at five minute intervals as a means to determine signal half-life.
A subset of the synthesized coelenterazine analogues (compounds of formula (I)) were evaluated for their suitability as luciferase substrates. NANOLUC® luciferase was employed for the screening because it is a small (19 kDa), stable, and particularly bright enzyme.

For assay [2], the system named is luciferase. As to the kind of experiment: Additional luciferase substrate assay, compared to known analogue C-1 (Table 3). It is filed as biochemical. As to conditions: relative to C-1 (=1). As to the method:
as §1
The compounds of formula (I) were also evaluated for their ability to be luciferase substrates in an additional assay.

This is an account of results in patent US11015216B2, “Substituted imidazo[1,2-a]pyrazines as luciferase substrates” (PROMEGA CORPORATION, priority 2016, dated 2021).

Sequence of NanoLuc® Luciferase (Q9GV45 other isoform, or with tags, fused parts or gaps with the stated changes): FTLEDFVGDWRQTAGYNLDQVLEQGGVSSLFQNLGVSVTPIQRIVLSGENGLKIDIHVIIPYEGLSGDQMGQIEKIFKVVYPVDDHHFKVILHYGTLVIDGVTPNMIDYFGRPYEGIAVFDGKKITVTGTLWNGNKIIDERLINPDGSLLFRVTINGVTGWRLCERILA

As for `O=c1c(Cc2ccc(Br)nc2)nc2c(Cc3ccccc3)[nH]c(-c3ccccc3)cn1-2` [Compound 70], in assay [1], the “I (relative light units, ratio in comparison to native coelenterazine)” value was found to be 5 and the “Half-life (signal half-life, ratio in comparison to native coelenterazine)” value came out at 0.19. Besides, the “RLU (@100 uM)” value in assay [2] came out at 0.12.
For `COc1ncc(Cc2nc3c(Cc4ccccc4)[nH]c(-c4ccccc4)cn-3c2=O)cn1` [Compound 15], in assay [1], the “I (relative light units, ratio in comparison to native coelenterazine)” value turned out to be 0.583 and the “Half-life (signal half-life, ratio in comparison to native coelenterazine)” value worked out at 0.88. For the same compound, the “RLU (@100 uM)” value in assay [2] was 0.014.
For `COc1ccc(Cc2nc3c(Cc4ccccc4)[nH]c(-c4ccccc4)cn-3c2=O)c(OC)n1` [Compound 73], in that order: 6.666, 0.93 and 0.16.
In the same order, the values of `Cn1nc(-c2cccs2)cc1Cc1nc2c(Cc3ccccc3)[nH]c(-c3ccccc3)cn-2c1=O` [Compound 12] are 0.192, 0.57 and 0.0046.
Turning to `O=c1c(Cc2cncc(F)c2)nc2c(Cc3ccccc3)[nH]c(-c3ccccc3)cn1-2` [Compound 66], in assay [1], the “I (relative light units, ratio in comparison to native coelenterazine)” value is 1.625 and the “Half-life (signal half-life, ratio in comparison to native coelenterazine)” value is on record as 0.98. Besides, the “RLU (@100 uM)” value in assay [2] turned out to be 0.039.
For the compound `O=c1c(Cc2c(F)cc(F)cc2F)nc2c(Cc3ccccc3)[nH]c(-c3ccccc3)cn1-2` [Compound 78], in assay [1], the “I (relative light units, ratio in comparison to native coelenterazine)” value is recorded as 8.75 and the “Half-life (signal half-life, ratio in comparison to native coelenterazine)” value turned out to be 0.43. The “RLU (@100 uM)” value in assay [2] was 0.21.
As for `O=c1c(Cc2cc3ccccc3s2)nc2c(Cc3ccccc3)[nH]c(-c3ccccc3)cn1-2` [Compound 6], in assay [1], the “I (relative light units, ratio in comparison to native coelenterazine)” value is 13.75 and the “Half-life (signal half-life, ratio in comparison to native coelenterazine)” value was found to be 0.33. The “RLU (@100 uM)” value in assay [2] is on record as 0.33.
In the case of `O=c1c(Cc2cn(-c3ccccc3)nc2-c2ccccc2)nc2c(Cc3ccccc3)[nH]c(-c3ccccc3)cn1-2` [Compound 14], in assay [1], the “I (relative light units, ratio in comparison to native coelenterazine)” value is on record as 0.042 and the “Half-life (signal half-life, ratio in comparison to native coelenterazine)” value was determined as 2.15. Moreover, the “RLU (@100 uM)” value in assay [2] was determined as 0.001.
Take `CC(C)(C)c1ccc(Cc2nc3c(Cc4ccccc4)[nH]c(-c4ccccc4)cn-3c2=O)cc1` [Compound 5]: in assay [1], the “I (relative light units, ratio in comparison to native coelenterazine)” value stood at 3.875 and the “Half-life (signal half-life, ratio in comparison to native coelenterazine)” value is listed as 0.43. In addition, in assay [2], the “RLU (@100 uM)” value is 0.093.
Turning to `O=c1c(Cc2cccnc2F)nc2c(Cc3ccccc3)[nH]c(-c3ccccc3)cn1-2` [Compound 67], in assay [1], the “I (relative light units, ratio in comparison to native coelenterazine)” value stood at 4.583 and the “Half-life (signal half-life, ratio in comparison to native coelenterazine)” value stood at 1.14. The “RLU (@100 uM)” value in assay [2] was 0.11.
In the same order, the values of `COc1ccc(Cc2nc3c(Cc4ccccc4)[nH]c(-c4ccccc4)cn-3c2=O)cc1` [Compound 8] are 23.333, 0.38 and 0.56.
In the case of `CN(C)c1ccc(Cc2nc3c(Cc4ccccc4)[nH]c(-c4ccccc4)cn-3c2=O)cn1` [Compound 77], in assay [1], the “I (relative light units, ratio in comparison to native coelenterazine)” value is given as 1.75 and the “Half-life (signal half-life, ratio in comparison to native coelenterazine)” value is 0.57. In assay [2], the “RLU (@100 uM)” value was 0.042.
`Cc1noc(C)c1Cc1nc2c(Cc3ccccc3)[nH]c(-c3ccccc3)cn-2c1=O` [Compound 13]: in assay [1], the “I (relative light units, ratio in comparison to native coelenterazine)” value is 0.583 and the “Half-life (signal half-life, ratio in comparison to native coelenterazine)” value came to 2.64. The “RLU (@100 uM)” value in assay [2] is 0.014.
In the same order, the values of `Cn1nnc2cc(Cc3nc4c(Cc5ccccc5)[nH]c(-c5ccccc5)cn-4c3=O)ccc21` [Compound 11] are 0.3, 1.04 and 0.0072.
As for `COc1nc(Cl)ccc1Cc1nc2c(Cc3ccccc3)[nH]c(-c3ccccc3)cn-2c1=O` [Compound 74], in assay [1], the “I (relative light units, ratio in comparison to native coelenterazine)” value was 3 and the “Half-life (signal half-life, ratio in comparison to native coelenterazine)” value amounted to 1.09. Besides, the “RLU (@100 uM)” value in assay [2] is reported as 0.072.
In the same order, the values of `O=c1c(Cc2ccc(Cl)nc2)nc2c(Cc3ccccc3)[nH]c(-c3ccccc3)cn1-2` [Compound 69] are 7.5, 0.35 and 0.18.
With `COc1cncc(Cc2nc3c(Cc4ccccc4)[nH]c(-c4ccccc4)cn-3c2=O)c1` [Compound 72], in assay [1], the “I (relative light units, ratio in comparison to native coelenterazine)” value is recorded as 1.208 and the “Half-life (signal half-life, ratio in comparison to native coelenterazine)” value stood at 0.88. Moreover, the “RLU (@100 uM)” value in assay [2] was 0.029.
For `O=c1c(Cc2ccc(CN3CCOCC3)o2)nc2c(Cc3ccccc3)[nH]c(-c3ccccc3)cn1-2` [Compound 81], in that order: 0.246, 1.19 and 0.0059.
For the compound `O=c1c(Cc2csc3ccccc23)nc2c(Cc3ccccc3)[nH]c(-c3ccccc3)cn1-2` [Compound 7], in assay [1], the “I (relative light units, ratio in comparison to native coelenterazine)” value is listed as 4.166 and the “Half-life (signal half-life, ratio in comparison to native coelenterazine)” value is recorded as 0.52. For the same compound, the “RLU (@100 uM)” value in assay [2] is given as 0.1.
`O=c1c(Cc2ccc(Cl)nc2Cl)nc2c(Cc3ccccc3)[nH]c(-c3ccccc3)cn1-2` [Compound 75]: in assay [1], the “I (relative light units, ratio in comparison to native coelenterazine)” value worked out at 0.958 and the “Half-life (signal half-life, ratio in comparison to native coelenterazine)” value was 0.57. For the same compound, the “RLU (@100 uM)” value in assay [2] amounted to 0.023.
For `O=c1c(Cc2cnns2)nc2c(Cc3ccccc3)[nH]c(-c3ccccc3)cn1-2` [Compound 82], in that order: 5.416, 1.19 and 0.13.
For `O=c1c(Cc2ccc(F)nc2)nc2c(Cc3ccccc3)[nH]c(-c3ccccc3)cn1-2` [Compound 68], in that order: 12.916, 0.93 and 0.31.
`O=c1c(Cc2ccc(F)nc2F)nc2c(Cc3ccccc3)[nH]c(-c3ccccc3)cn1-2` [Compound 65]: in assay [1], the “I (relative light units, ratio in comparison to native coelenterazine)” value was found to be 10.833 and the “Half-life (signal half-life, ratio in comparison to native coelenterazine)” value is 0.62. In addition, in assay [2], the “RLU (@100 uM)” value is recorded as 0.26.
For `O=c1c(Cc2cccnc2)nc2c(Cc3ccccc3)[nH]c(-c3ccccc3)cn1-2` [Compound 64], in that order: 2.75, 3.03 and 0.066.
In the same order, the values of `O=c1c(Cc2ccc(F)cc2F)nc2c(Cc3ccccc3)[nH]c(-c3ccccc3)cn1-2` [Compound 3] are 38.75, 0.23 and 0.93.
